In brackets after ≈: the same amount, converted by molar mass. Like-named read-outs stand apart in the source and are kept apart here.
Legend:
[1] = test system: ZFL cells; test: Cell viability by MTT assay; format: cell-based, zebrafish; settings: 72 h
Method: Cell viability was determined by MTT assay. A total of 10,000 cells/well were seeded in 96-well plates under culture conditions for 24 h. Then, the culture medium was replaced by contaminated medium (200 µL) with range of concentrations of BDE-47 (0.2–10 mg·L^−1). Three independent replicates with the same experimental conditions, a control group (cells without pollutant) and a blank group (only cell culture medium) were performed. After 72 h, 20 µL of MTT solution (5 mg·mL^−1) was added to provide a final concentration of 0.5 mg·mL^−1 and incubated for 4 h. Formazan produced in the MTT assay was dissolved using 100 μL DMSO, and absorbance was recorded at 595 nm. The results have been subsequently used for the design of the bioaccumulation and biotransformation experiment.

[2] = test system: ZFL cells; test: Mass balance model (MBM) prediction of Cfree and Ccell; design: species or system zebrafish
Method: Ccell and Cfree were determined for the BDE-47 using Fisher et al.’s mass balance model (MBM). In brief, the test system parameters for the experiment (Table S3) and BDE-47 distribution parameters (Table S4) estimated by the UFZ-LSER Calculation Partition System tool were first entered into the MBM spreadsheet. Although this model includes preset parameters for various cell lines, the input fields for cell-line type and culture medium were left empty for ZFL, and generic parameters were applied instead. Then, data for fractions of cell (fcell), total medium (fmedium), cell membrane (fmem) and the water phase of the medium (fw,medium) compartment were output (Table S5) and applied to each experimentally determined BDE-47 Cmedium to estimate the Cfree, MBM and Ccell, MBM at each exposure time.

[3] = test system: zebrafish; test: IVIVE-BCF model with zebrafish default parameters; format: in vitro ADME; settings: k1 and k2 from experimental Ccell and Cfree
[4] = cited from earlier work
[5] = test system: young Psetta maxima; design: method as in doi:10.1007/s11270-014-2072-0; settings: cited from earlier work
[6] = test system: Gammarus pulex; design: method as in PMID 24879528; settings: 1 µg·L^−1; cited from earlier work
[7] = test system: ZFL cells; test: Substrate depletion in ZFL cells, inputs of the IVIVE-BCF model; format: in vitro ADME, zebrafish
Description: One of the objectives was to assess whether cell lines can be used within the BCF-IVIVE model, relying on intrinsic clearance in vitro, to estimate the biotransformation rate which is subsequently extrapolated to adult fish. This approach is based on the model developed by Nichols et al. and is endorsed by the OECD guideline 319A [10] and OECD 2018a. Briefly, the log10-transformed substrate experimental concentrations in the medium (Cmed) were plotted against time, and the first-order elimination rate constant (ke, h^−1) was determined as −2.3 × slope of the log-linear decline. Black et al. indicate that a correction to the elimination rate constant (ke) should be applied when the following conditions are met: (i) abiotic losses from volatilization, calculated by comparing the recovery of negative control samples (“no cells”) at each exposure time to the initial time, fall outside the acceptable range of 80–120%, (ii) the loss process follows first order kinetics, and (iii) the ratio of ke and the volatilization rate constant (kvolat) is below 10 (ke/kvolat < 10). Then, the constant corrected for losses due to volatilization (ke,loss) was determined as −2.3 × the difference of the slopes of the sample and the loss control of the log-linear descent. The in vitro constant was then extrapolated to obtain an in vivo metabolization constant (kMET). This was done using experimental cell concentration (CHEP, 10^6 cells/mL) and default parameters derived from rainbow trout. In this study, in addition to estimating BCF with the official model parameters derived from rainbow trout (BCFIVIVE,RT), BCF was also estimated with the literature-derived parameters for zebrafish (BCFIVIVE,ZF), due to the use of ZFL cells. Finally, the BCF was estimated by the ratio of concentration in the organism to concentration in the medium, following the standardized model. […]

[8] = test system: ZFL cells; design: method as in PMID 25544063; settings: 10% FBS, cited from earlier work
[9] = test system: zebrafish eleutheroembryos; design: method as in PMID 36705440; settings: cited from earlier work

Brc1ccc(Oc2ccc(Br)cc2Br)c(Br)c1 [BDE-47, 2,2′,4,4′-tetrabromodiphenyl ether]
LC30 after applying percentage of Cfree ([1]; bioavailable concentration): 0.00055 µg/mL
concentration decreasing viability by 30% (LC30) ([1]; nominal concentration, 10% FBS): 0.45 µg/mL
concentration decreasing viability by 50% (LC50) ([1]; nominal concentration, 10% FBS): 2.03 µg/mL
Ratio MBM/experimental of internal concentration ([2]; 24h, 1.8 mg·L-1, ZFL cells): 51%
Ratio MBM/experimental of internal concentration ([2]; 24h, 2.6 mg·L-1, ZFL cells): 73%
Ratio MBM/experimental of internal concentration ([2]; 48h, 1.8 mg·L-1, ZFL cells): 44%
Ratio MBM/experimental of internal concentration ([2]; 48h, 2.6 mg·L-1, ZFL cells): 78%
Ratio MBM/experimental of internal concentration ([2]; 72h, 1.8 mg·L-1, ZFL cells): 36%
Ratio MBM/experimental of internal concentration ([2]; 72h, 2.6 mg·L-1, ZFL cells): 66%
BCFIVIVE, ZF, exp ([3]; Cnominal 1.8 mg·L^−1): 22,614 L·kg^−1
BCFIVIVE, ZF, exp ([3]; Cnominal 2.6 mg·L^−1): 38,948 L·kg^−1
Henry's law constant (KH) ([4]; at 30 °C): 1.79 ± 0.21 Pa·m^3·mol^−1
log Kow [4]: 6.81
log DPDMS/medium ([4]; partition constant PDMS fiber/medium): 5.84
BCFk ([5]; 0.001 µg·L^−1): 33,103 L·kg^−1
BCFk ([5]; 0.1 µg·L^−1): 15,531 L·kg^−1
BCFk ([5]; 1 µg·L^−1): 24,125 L·kg^−1
BCFk [6]: ~5000 L/kg
ke,loss ([7]; Experiment 1.8 mg·L-1, corrected for volatilization losses): 0.012 h⁻¹
ke,loss ([7]; Experiment 2.6 mg·L-1, corrected for volatilization losses): 0.002 h⁻¹
Cw, TOT (Cfree,exp) ([7]; Experiment 2.6 mg·L-1, input parameter): 0.0016 mg/L
LC50 (24 h) ([8]; 24 h): 1.60 µg/mL (≈ 3.29 µM)
LC50 (96 h) ([8]; 96 h): 1.26 µg/mL (≈ 2.59 µM)
BCF48 h ([9]; 1 µg·L^−1, zebrafish larvae): 16,392 L·kg^−1
BCFk ([9]; 1 µg·L^−1, zebrafish larvae): 36,363 L·kg^−1
BCF48 h ([9]; 10 µg·L^−1, zebrafish larvae): 4106 L/kg
BCFk ([9]; 10 µg·L^−1, zebrafish larvae): 7295 L/kg

Reference: article PMC12194305, “Assessing Bioconcentration and Biotransformation of BDE-47 In Vitro: The Relevance of Bioavailable and Intracellular Concentrations” (Journal of Xenobiotics, 2025)
